One data set has as its target T1, rat M1 receptors (Rattus norvegicus, UniProt P08482).
T1 construct: host or cells: CHO (M1-CHO)
T1 sequence (P08482 1-460): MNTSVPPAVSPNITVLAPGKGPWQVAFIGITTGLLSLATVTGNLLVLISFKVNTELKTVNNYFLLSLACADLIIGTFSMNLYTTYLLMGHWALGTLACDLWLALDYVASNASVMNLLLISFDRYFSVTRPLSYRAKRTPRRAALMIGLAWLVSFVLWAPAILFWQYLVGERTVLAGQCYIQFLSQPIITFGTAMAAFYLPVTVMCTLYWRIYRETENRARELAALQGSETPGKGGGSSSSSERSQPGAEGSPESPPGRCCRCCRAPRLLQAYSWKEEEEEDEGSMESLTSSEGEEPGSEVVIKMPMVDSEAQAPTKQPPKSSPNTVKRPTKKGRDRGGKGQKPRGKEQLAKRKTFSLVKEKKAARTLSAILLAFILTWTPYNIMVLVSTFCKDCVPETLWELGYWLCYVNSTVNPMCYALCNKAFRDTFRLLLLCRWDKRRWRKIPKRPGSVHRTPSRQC
Put plainly: PI turnover (inositol phosphate production) in M1-CHO cells. The data set is classed as cell-based. The note with it: mean Smax relative to carbachol (100.0); CHO cells expressing rat M1. On the procedure:
The medium was changed to 70 μL/well of inositol-free DMEM containing 2 mM glutamine, 10% FBS and 10 μCi/ml of [3H]-inositol (PE:cat # NET114A250UC), incubated overnight as above, then 100 μL of a solution of the test compound in HBSS containing 10 mM LiCl and 20 mM HEPES, pH 7.4 was added, incubation was continued for 60 min under the above conditions, and the test was stopped by removing the test compound and replacing with 100 μL of 50 mM formic acid in water at 4° C. […] The compounds in Table 1 are all dihydropyrimidine-oxadiazoles which vary only at the oxadiazole side chain.

A short description of data set [1]: Metabolites in serum and urine of dosed rats (LC-MS). The data set is classed as in vivo. The note with it: rat serum or urine, 10 mg/kg po. On the procedure:
Oxadiazoles disclosed herein as well as other oxadiazoles were investigated to determine the formation of metabolites. Animals were dosed, blood taken, serum prepared, serum proteins precipitated and ultrafiltrates prepared as described in Example 6. In separate experiments, urine was collected from rats for 16-24 hours after dosing, using standard metabolic cages. The urine container and collected urine were maintained at 4° C. Urine was lyophilized, taken back into water. The uftrafiltrate was prepared by adding formic acid to a final concentration of 1% to the urine samples, then filtered through a 0.2 um nylon membrane. The ultrafiltrate was subjected to LC-MS analysis. Instead of measuring the product ions in Q3, manual Q1 scans of the liquid chromatograph were undertaken, seeking parent ions of potential metabolites of the compounds. The criteria for identifying metabolites were as follows: (1) the ion should be present in the sera or urines of dosed rats, but not in sera or urines from non-dosed rats (2) the ion should be identifiable as a metabolic derivative of the dosed compound (e.g. loss of a functional chemical moiety, addition of a hydroxyl group or a glucuronic acid moiety, etc). Metabolites were determined not to be present if no compound meeting the above criteria could be detected in serum or urine.

Data set [2] in a line: Serum pharmacokinetics of immediate release capsules in healthy volunteers. The data set is classed as in vivo, human. The note with it: 5 mg dose cohort, 6 subjects. As to the method: The hydrochloride salt of MCD-386 (“MCD-386 HCl”) was formulated with the following excipients and loaded into #3 hard gelatin capsules (5 mg dose) or #2 hard gelatin capsules (0.2 mg dose).
A single 5 mg capsule or 5×0.2 mg capsules (1 mg total dose) were administered orally to healthy male volunteer human subjects with 125 ml of water. Six such subjects receiving the 5 mg dose, and a different 6 subjects received the 1 mg dose.
Venous blood samples were drawn at various intervals after dosing from each subject into standard tubes for bioanalytical and pharmacokinetic analysis. The blood was allowed to clot, and the serum separated, using common clinical laboratory techniques. Serum samples were stored at −20 deg C. until used for analysis.
MCD-386 HCl, which exists in serum principally as the protonated form of MCD-386, was assayed in clinical serum samples as follows. […] The MS/MS transitions monitored were 181.1 m/z to 111.0 m/z for MCD-386 HCl and 186.1 m/z to 111.1 m/z for the internal standard, D5-MCD-386 HCl. […] The lower limit of quantitation (LLOQ) was 0.100 ng MCD-386 HCl per mL of serum. MCD-386 HCl concentrations are expressed as free base. […]
The bioanalytical results were analyzed using Win Nonlin software and common pharmacokinetic methods known to those skilled in the art.

With `CCc1noc(C2CN=CNC2)n1` (stereo not drawn) [MCD-386, 3-ethyl-5-(1,4,5,6-tetrahydropyrimidin-5-yl)-1,2,4-oxadiazole], the “M1/CHO PI turnover Relative Mean Smax” value at rat M1 receptors came to 70.0. Moreover, in data set [1], the “Presence of metabolites (10 mg/kg po)” value is reported as “Yes”. Besides, in data set [2], the “main metabolite in serum samples” value is given as “identified in the serum samples of five out of six subjects”.

(Values after patent US9403806B1, “Cognition enhancing compounds and compositions, methods of making, and methods of treating” (NeuroSolis, Inc., priority 2010, dated 2016).)
